Measured values taken from US11787785B2 (NOVARTIS AG, priority 2021, dated 2023).

Biological target: T1, WIZ protein (HiBit-WIZ fusion protein) (Homo sapiens, UniProt O95785+Q96SW2)
T1 construct: expressed in transfected cells
Assay: Quantification of WIZ protein levels in HiBit tag fusion protein assay (WIZ HiBit assay in 293T cells)
Format: cell-based
Set-up: remaining activity / Dmax: dose or concentration left out as unconfirmed
Details: for Dmax at 25 µM: 100 − Amax; for Dmax at 25 µM / remaining activity at 25 µM: 293T cells; for remaining activity at 25 µM: DMSO-normalized, curve-fitted percentage of WIZ-HiBit remaining at 25 uM; for DC50: WIZ HiBit assay in 293T cells, 10-point, 5-fold dose response, highest concentration 25 μM, about 18 hours, read-out: WIZ AC50
Summary of the method: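 HiBit-tagged WIZ (N-terminal tag, HSVTK promoter) stably expressed single-copy in 293T cells; 10-point 1:5 compound series, top 25 μM, ~18 h at 37 °C. Lytic HiBit/LgBit luminescence read; Amax = curve-fitted % WIZ-HiBit remaining at 25 μM, DMSO normalized to 100%.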

[1] = HEK-293T, read-out: % degradation of WIZ (100 − Amax)

T1 sequence (O95785 whole entry, the tested form may be a part): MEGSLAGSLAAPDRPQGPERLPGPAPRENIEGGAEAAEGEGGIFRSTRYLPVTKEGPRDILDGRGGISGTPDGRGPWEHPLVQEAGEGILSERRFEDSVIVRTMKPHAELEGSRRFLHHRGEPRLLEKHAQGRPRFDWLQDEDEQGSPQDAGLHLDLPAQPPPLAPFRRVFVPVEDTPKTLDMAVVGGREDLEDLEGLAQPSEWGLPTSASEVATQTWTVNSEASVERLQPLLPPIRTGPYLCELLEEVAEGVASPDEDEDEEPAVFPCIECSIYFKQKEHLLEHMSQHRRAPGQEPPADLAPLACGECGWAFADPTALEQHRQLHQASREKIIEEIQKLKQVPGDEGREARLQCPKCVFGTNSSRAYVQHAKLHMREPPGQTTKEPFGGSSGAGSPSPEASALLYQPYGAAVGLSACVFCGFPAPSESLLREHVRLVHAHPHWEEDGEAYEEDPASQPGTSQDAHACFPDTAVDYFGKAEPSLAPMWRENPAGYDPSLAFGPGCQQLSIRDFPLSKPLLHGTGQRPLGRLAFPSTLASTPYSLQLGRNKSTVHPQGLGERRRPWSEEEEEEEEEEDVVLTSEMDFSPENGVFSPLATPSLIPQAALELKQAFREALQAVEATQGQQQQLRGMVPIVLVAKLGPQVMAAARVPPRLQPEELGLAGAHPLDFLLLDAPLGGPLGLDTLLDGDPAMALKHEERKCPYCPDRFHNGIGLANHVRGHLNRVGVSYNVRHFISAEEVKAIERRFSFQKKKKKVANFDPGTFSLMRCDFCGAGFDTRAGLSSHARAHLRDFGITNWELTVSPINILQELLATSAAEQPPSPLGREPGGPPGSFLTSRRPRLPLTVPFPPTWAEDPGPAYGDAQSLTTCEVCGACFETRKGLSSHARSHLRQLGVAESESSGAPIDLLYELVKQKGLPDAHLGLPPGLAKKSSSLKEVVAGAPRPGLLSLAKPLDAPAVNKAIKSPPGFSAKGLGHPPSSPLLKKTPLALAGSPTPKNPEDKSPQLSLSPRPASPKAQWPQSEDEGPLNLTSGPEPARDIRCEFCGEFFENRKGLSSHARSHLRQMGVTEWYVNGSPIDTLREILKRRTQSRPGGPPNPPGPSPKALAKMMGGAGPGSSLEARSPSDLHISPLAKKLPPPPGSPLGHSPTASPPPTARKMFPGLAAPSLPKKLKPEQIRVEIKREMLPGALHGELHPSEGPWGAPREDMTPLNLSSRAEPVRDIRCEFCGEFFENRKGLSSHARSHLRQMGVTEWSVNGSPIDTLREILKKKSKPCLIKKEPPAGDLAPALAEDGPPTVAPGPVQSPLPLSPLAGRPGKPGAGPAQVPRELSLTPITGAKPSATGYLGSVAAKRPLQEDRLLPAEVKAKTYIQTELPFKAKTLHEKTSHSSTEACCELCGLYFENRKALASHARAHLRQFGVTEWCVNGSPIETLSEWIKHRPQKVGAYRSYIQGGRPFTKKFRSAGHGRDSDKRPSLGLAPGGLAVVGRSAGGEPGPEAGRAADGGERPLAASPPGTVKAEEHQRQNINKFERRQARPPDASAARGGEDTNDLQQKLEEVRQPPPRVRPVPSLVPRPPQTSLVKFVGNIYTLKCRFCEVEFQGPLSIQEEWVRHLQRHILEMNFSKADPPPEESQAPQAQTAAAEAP
T1 sequence (Q96SW2 whole entry, the tested form may be a part): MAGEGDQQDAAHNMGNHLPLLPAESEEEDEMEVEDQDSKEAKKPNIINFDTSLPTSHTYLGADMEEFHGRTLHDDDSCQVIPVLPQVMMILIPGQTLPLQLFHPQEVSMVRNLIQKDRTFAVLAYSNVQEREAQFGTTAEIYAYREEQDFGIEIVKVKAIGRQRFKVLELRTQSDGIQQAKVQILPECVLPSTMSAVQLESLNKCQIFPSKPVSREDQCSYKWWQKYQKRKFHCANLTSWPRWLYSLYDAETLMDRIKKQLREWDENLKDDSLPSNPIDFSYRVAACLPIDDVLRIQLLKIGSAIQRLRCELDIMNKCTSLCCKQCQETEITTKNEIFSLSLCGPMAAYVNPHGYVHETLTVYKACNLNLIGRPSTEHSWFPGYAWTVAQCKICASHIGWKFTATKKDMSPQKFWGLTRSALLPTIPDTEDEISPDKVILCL
T1 sequence (Q16531 whole entry partner, the tested form may be a part): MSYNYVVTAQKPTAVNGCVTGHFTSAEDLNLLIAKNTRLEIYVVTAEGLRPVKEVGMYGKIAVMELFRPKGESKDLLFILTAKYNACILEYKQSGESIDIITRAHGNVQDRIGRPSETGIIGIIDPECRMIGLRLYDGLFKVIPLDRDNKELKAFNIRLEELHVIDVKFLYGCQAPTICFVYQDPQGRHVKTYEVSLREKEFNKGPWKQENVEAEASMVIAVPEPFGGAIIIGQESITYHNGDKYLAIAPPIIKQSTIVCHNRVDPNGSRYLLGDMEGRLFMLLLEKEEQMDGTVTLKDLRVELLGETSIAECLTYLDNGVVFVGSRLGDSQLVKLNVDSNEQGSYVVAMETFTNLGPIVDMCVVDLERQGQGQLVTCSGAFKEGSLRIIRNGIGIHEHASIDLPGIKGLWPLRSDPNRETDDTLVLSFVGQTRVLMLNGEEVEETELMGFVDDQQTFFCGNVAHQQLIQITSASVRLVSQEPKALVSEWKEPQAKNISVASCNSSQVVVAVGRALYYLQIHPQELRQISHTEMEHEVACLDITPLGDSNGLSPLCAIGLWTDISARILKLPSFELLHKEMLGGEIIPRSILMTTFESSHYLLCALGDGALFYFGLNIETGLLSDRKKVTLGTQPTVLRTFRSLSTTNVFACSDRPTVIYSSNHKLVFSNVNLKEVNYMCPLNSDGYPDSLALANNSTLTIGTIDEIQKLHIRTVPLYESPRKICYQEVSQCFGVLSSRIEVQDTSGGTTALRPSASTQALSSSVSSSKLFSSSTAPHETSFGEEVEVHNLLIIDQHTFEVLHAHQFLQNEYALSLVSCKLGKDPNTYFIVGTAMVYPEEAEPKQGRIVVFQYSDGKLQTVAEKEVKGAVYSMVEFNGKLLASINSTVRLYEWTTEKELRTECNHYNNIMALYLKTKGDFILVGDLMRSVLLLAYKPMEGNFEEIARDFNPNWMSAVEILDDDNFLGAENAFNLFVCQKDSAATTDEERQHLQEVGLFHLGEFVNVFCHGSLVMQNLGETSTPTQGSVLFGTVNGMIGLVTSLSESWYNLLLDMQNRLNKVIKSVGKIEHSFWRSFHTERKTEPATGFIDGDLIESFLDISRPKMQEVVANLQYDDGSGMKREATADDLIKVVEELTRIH

Compound	Dmax at 25 µM [1] [%]	remaining activity at 25 µM (HEK-293T, read-out: WIZ Amax) [%]	DC50 [nM]	Dmax [1] [%]	remaining activity (HEK-293T, read-out: WIZ Amax) [%]
C[C@H]1C[C@H](Cc2ccn3ncc(N4CCC(=O)NC4=O)c3c2)CCN1CC1CCCCC1 [Example 143]	88	12	4	–	–
CC(C)(C1CCC1)N1CCC(Cc2ccn3ncc(N4CCC(=O)NC4=O)c3c2)CC1 [Example 138, 1-(5-((1-(2-cyclobutylpropan-2-yl)piperidin-4-yl)methyl)pyrazolo[1,5-a]pyridin-3-yl)dihydropyrimidine-2,4(1H,3H)-dione]	80	20	100	–	–
O=C1CCN(c2cnn3ccc(CN4C[C@H]5CC[C@@H](C4)N5CC4CCCCC4)cc23)C(=O)N1 [Example 252, 1-(5-(((1R,5S)-8-(cyclohexylmethyl)-3,8-diazabicyclo[3.2.1]octan-3-yl)methyl)pyrazolo[1,5-a]pyridin-3-yl)dihydropyrimidine-2,4(1H,3H)-dione]	42	58	277	–	–
O=C1CCN(c2cnn3ccc(CC4(F)CCN(CC5CCCCC5)CC4)cc23)C(=O)N1 [Example 123, 1-(5-((1-(cyclohexylmethyl)-4-fluoropiperidin-4-yl)methyl)pyrazolo[1,5-a]pyridin-3-yl)dihydropyrimidine-2,4(1H,3H)-dione]	68	32	95	–	–
C[C@H]1C[C@@H](Cc2ccn3ncc(N4CCC(=O)NC4=O)c3c2)CCN1CC1CCCCC1 (single isomer, unassigned) [Example 71]	85	15	7	–	–
C[C@H]1C[C@H](Cc2ccn3ncc(N4CCC(=O)NC4=O)c3c2)CCN1Cc1cccnc1 [Example 150]	90	10	0.3	–	–
O=C1CCN(c2cnn3ccc(CC4CCN(CC5CCCCC5)C4)cc23)C(=O)N1 (stereo not drawn) [Example 128]	29	71	830	–	–
Cc1c(CC2CCN(CC3CCCCC3)CC2)ccn2ncc(N3CCC(=O)NC3=O)c12 [Example 127, 1-(5-((1-(cyclohexylmethyl)piperidin-4-yl)methyl)-4-methylpyrazolo[1,5-a]pyridin-3-yl)dihydropyrimidine-2,4(1H,3H)-dione]	69	31	13	–	–
O=C1CCN(c2cnn3ccc(CC4CCNCC4)cc23)C(=O)N1 [Example 108, 1-(5-(piperidin-4-ylmethyl)pyrazolo[1,5-a]pyridin-3-yl)dihydropyrimidine-2,4(1H,3H)-dione]	34	66	1340	–	–
O=C1CCN(c2cnn3ccc(CN4CCN(Cc5ccccc5)CC4)cc23)C(=O)N1 [Example 165]	69	31	198	–	–
CC(C)CS(=O)(=O)N1CCC(Cc2ccn3ncc(N4CCC(=O)NC4=O)c3c2)CC1 [Example 87]	79	21	25	–	–
CC(CN1CCC(Cc2ccn3ncc(N4CCC(=O)NC4=O)c3c2)CC1)C1CCCCC1 (stereo not drawn) [Example 10, 1-(5-((1-(2-cyclohexylpropyl)piperidin-4-yl)methyl)pyrazolo[1,5-a]pyridin-3-yl)dihydropyrimidine-2,4(1H,3H)-dione]	84	16	4	–	–
O=C1CCN(c2cnn3ccc(CC4CCN(C[C@H]5CC[C@H](O)CC5)CC4)cc23)C(=O)N1 [Example 151, 1-(5-((1-(((1r,4r)-4-hydroxycyclohexyl)methyl)piperidin-4-yl)methyl)pyrazolo[1,5-a]pyridin-3-yl)dihydropyrimidine-2,4(1H,3H)-dione]	86	14	270	–	–
O=C1CCN(c2cnn3ccc(CC4CCN(C(=O)CCC5CCCCC5)CC4)cc23)C(=O)N1 [Example 103]	28	72	82	–	–
C[C@@H]1CC(CN2CCC(Cc3ccn4ncc(N5CCC(=O)NC5=O)c4c3)CC2)C[C@H](C)O1 (stereo partly drawn) [Example 113]	88	12	4	–	–
O=C1CCN(c2cnn3ccc(CC4CCN(S(=O)(=O)CC5CCCCC5)CC4)cc23)C(=O)N1 [Example 80, 1-(5-((1-((cyclohexylmethyl)sulfonyl)piperidin-4-yl)methyl)pyrazolo[1,5-a]pyridin-3-yl)dihydropyrimidine-2,4(1H,3H)-dione]	–	–	49	88	12

More lines, main results first:

Dmax at 25 µM [1] [%]	remaining activity at 25 µM (HEK-293T, read-out: WIZ Amax) [%]	DC50 [nM]	Compound	Dmax [1] [%]	remaining activity (HEK-293T, read-out: WIZ Amax) [%]
78	22	193	C[C@H]1CN(Cc2ccn3ncc(N4CCC(=O)NC4=O)c3c2)CCN1CCC1CCOCC1 [Example 206]	–	–
86	14	118	CC(C)CN1CC[C@@H](Cc2ccn3ncc(-n4cc(F)c(=O)[nH]c4=O)c3c2)C[C@@H]1C [Example 349, 5-fluoro-1-(5-(((2S,4R)-1-isobutyl-2-methylpiperidin-4-yl)methyl)pyrazolo[1,5-a]pyridin-3-yl)pyrimidine-2,4(1H,3H)-dione]	–	–
81	19	48	C[C@H]1CN(Cc2ccn3ncc(N4CCC(=O)NC4=O)c3c2)CCN1CC1CCC1 [Example 213, (S)-1-(5-((4-(cyclobutylmethyl)-3-methylpiperazin-1-yl)methyl)pyrazolo[1,5-a]pyridin-3-yl)dihydropyrimidine-2,4(1H,3H)-dione]	–	–
41	59	3820	Cn1cnc(CN2CCN(Cc3ccn4ncc(N5CCC(=O)NC5=O)c4c3)CC2)c1 [Example 196, 1-(5-((4-((1-methyl-1H-imidazol-4-yl)methyl)piperazin-1-yl)methyl)pyrazolo[1,5-a]pyridin-3-yl)dihydropyrimidine-2,4(1H,3H)-dione]	–	–
35	65	715	CCS(=O)(=O)N1CCN(Cc2ccn3ncc(N4CCC(=O)NC4=O)c3c2)C[C@@H]1C [Example 339, (S)-1-(5-((4-(ethylsulfonyl)-3-methylpiperazin-1-yl)methyl)pyrazolo[1,5-a]pyridin-3-yl)dihydropyrimidine-2,4(1H,3H)-dione]	–	–
55	45	880	O=C1CCN(c2cnn3ccc(CN4CCN5CCOC[C@H]5C4)cc23)C(=O)N1 [Example 263, (R)-1-(5-((hexahydropyrazino[2,1-c][1,4]oxazin-8(1H)-yl)methyl)pyrazolo[1,5-a]pyridin-3-yl)dihydropyrimidine-2,4(1H,3H)-dione]	–	–
78	21	18	C[C@H]1CN(Cc2ccn3ncc(N4CCC(=O)NC4=O)c3c2)CCN1C[C@H]1CCC(F)(F)C1 [Example 320, 1-(5-(((S)-4-(((S)-3,3-difluorocyclopentyl)methyl)-3-methylpiperazin-1-yl)methyl)pyrazolo[1,5-a]pyridin-3-yl)dihydropyrimidine-2,4(1H,3H)-dione]	–	–
89	11	378	Cc1cn(-c2cnn3ccc(C[C@@H]4CCN(CC(C)C)[C@@H](C)C4)cc23)c(=O)[nH]c1=O [Example 347, 1-(5-(((2S,4R)-1-isobutyl-2-methylpiperidin-4-yl)methyl)pyrazolo[1,5-a]pyridin-3-yl)-5-methylpyrimidine-2,4(1H,3H)-dione]	–	–
86	14	19	C[C@H]1CN(Cc2ccn3ncc(N4CCC(=O)NC4=O)c3c2)CCN1CC1CCCCC1 [Example 192, (S)-1-(5-((4-(cyclohexylmethyl)-3-methylpiperazin-1-yl)methyl)pyrazolo[1,5-a]pyridin-3-yl)dihydropyrimidine-2,4(1H,3H)-dione]	–	–
32	68	862	C[C@H]1CN(Cc2ccn3ncc(N4CCC(=O)NC4=O)c3c2)CCN1C(=O)C1CC1 [Example 340, (S)-1-(5-((4-(cyclopropanecarbonyl)-3-methylpiperazin-1-yl)methyl)pyrazolo[1,5-a]pyridin-3-yl)dihydropyrimidine-2,4(1H,3H)-dione]	–	–
29	71	1630	O=C1CCN(c2cnn3ccc(CN4CCN(C(=O)C5(C(F)(F)F)CC5)CC4)cc23)C(=O)N1 [Example 184, 1-(5-((4-(1-(trifluoromethyl)cyclopropane-1-carbonyl)piperazin-1-yl)methyl)pyrazolo[1,5-a]pyridin-3-yl)dihydropyrimidine-2,4(1H,3H)-dione]	–	–
52	48	981	O=C1CCN(c2cnn3ccc(CN4CCN(CC(F)(F)F)CC4)cc23)C(=O)N1 [Example 171]	–	–
32	68	1050	C[C@H]1CN(CC2CCCO2)CCN1Cc1ccn2ncc(N3CCC(=O)NC3=O)c2c1 (stereo partly drawn) [Example 225]	–	–
85	15	109	C[C@H]1CN(Cc2ccn3ncc(-n4ccc(=O)[nH]c4=O)c3c2)CCN1CC1CCC(F)(F)CC1 [Example 363, (S)-1-(5-((4-((4,4-difluorocyclohexyl)methyl)-3-methylpiperazin-1-yl)methyl)pyrazolo[1,5-a]pyridin-3-yl)pyrimidine-2,4(1H,3H)-dione]	–	–
87	13	68	C[C@H]1CN(Cc2ccn3ncc(N4CCC(=O)NC4=O)c3c2)CCN1C1CCCCC1 [Example 333]	–	–
